Measurements from ChEMBL document CHEMBL1147199, “Exploration of the correlation between the structure, hemolytic activity, and cytotoxicity of steroid saponins” (Bioorg Med Chem, 2007).

Test: Cytotoxicity against human erythrocytes assessed as hemolytic activity after 60 mins
Format: cell-based, Erythrocyte
Settings: read-out: HD50

Going from `C[C@@H]1CC[C@@]2(OC1)O[C@H]1C[C@H]3[C@@H]4CC=C5C[C@@H](O[C@@H]6O[C@H](CNC(=O)C(F)(F)F)[C@@H](O[C@H]7O[C@H](C)[C@@H](O)[C@H](O)[C@@H]7O)[C@H](O)[C@H]6O[C@H]6O[C@H](C)[C@@H](O)[C@H](O)[C@@H]6O)CC[C@]5(C)[C@H]4CC[C@]3(C)[C@H]1[C@@H]2C` to `C[C@@H]1CC[C@@]2(OC1)O[C@H]1C[C@H]3[C@@H]4CC=C5C[C@@H](O[C@@H]6O[C@H](CO)[C@@H](O[C@H]7O[C@H](C)[C@@H](OCCNC(=O)C(F)(F)F)[C@H](O)[C@@H]7O)[C@H](O)[C@H]6O[C@H]6O[C@H](C)[C@@H](O)[C@H](O)[C@@H]6O)CC[C@]5(C)[C@H]4CC[C@]3(C)[C@H]1[C@@H]2C`, the HC50 at 1 h falls from 18.5 µM to 5.7 µM (3.2-fold).

`C[C@@H]1CC[C@@]2(OC1)O[C@H]1C[C@H]3[C@@H]4CC=C5C[C@@H](O[C@@H]6O[C@H](CO)[C@@H](O[C@H]7O[C@H](C)[C@@H](OCCNC(=O)COc8ccccc8)[C@H](O)[C@@H]7O)[C@H](O)[C@H]6O[C@H]6O[C@H](C)[C@@H](O)[C@H](O)[C@@H]6O)CC[C@]5(C)[C@H]4CC[C@]3(C)[C@H]1[C@@H]2C` and `C[C@@H]1CC[C@@]2(OC1)O[C@H]1C[C@H]3[C@@H]4CC=C5C[C@@H](O[C@@H]6O[C@H](CNC(=O)COc7ccccc7)[C@@H](O[C@H]7O[C@H](C)[C@@H](O)[C@H](O)[C@@H]7O)[C@H](O)[C@H]6O[C@H]6O[C@H](C)[C@@H](O)[C@H](O)[C@@H]6O)CC[C@]5(C)[C@H]4CC[C@]3(C)[C@H]1[C@@H]2C` are within 1.5-fold of each other in HC50 at 1 h: 7.6 µM for the first, 9.4 µM for the second.

`C[C@@H]1CC[C@@]2(OC1)O[C@H]1C[C@H]3[C@@H]4CC=C5C[C@@H](O[C@@H]6O[C@H](CO)[C@@H](O)[C@H](O)[C@H]6O[C@@H]6O[C@@H](C)[C@H](O)[C@@H](O)[C@H]6O)CC[C@]5(C)[C@H]4CC[C@]3(C)[C@H]1[C@@H]2C` [OPHIOPOGONIN C] and `C[C@@H]1CC[C@@]2(OC1)O[C@H]1C[C@H]3[C@@H]4CC=C5C[C@@H](O[C@@H]6O[C@H](CO)[C@@H](O[C@@H]7O[C@@H](C)[C@H](O)[C@@H](O)[C@H]7O)[C@H](O)[C@H]6O)CC[C@]5(C)[C@H]4CC[C@]3(C)[C@H]1[C@@H]2C` are within 1.5-fold of each other in HC50 at 1 h: 21.6 µM for the first, 27.3 µM for the second.

First: C[C@@H]1CC[C@@]2(OC1)O[C@H]1C[C@H]3[C@@H]4CC=C5C[C@@H](O[C@@H]6O[C@H](CNC(=O)CCCCl)[C@@H](O[C@H]7O[C@H](C)[C@@H](O)[C@H](O)[C@@H]7O)[C@H](O)[C@H]6O[C@H]6O[C@H](C)[C@@H](O)[C@H](O)[C@@H]6O)CC[C@]5(C)[C@H]4CC[C@]3(C)[C@H]1[C@@H]2C
Second: C[C@@H]1CC[C@@]2(OC1)O[C@H]1C[C@H]3[C@@H]4CC=C5C[C@@H](O[C@@H]6O[C@H](CO)[C@@H](O[C@H]7O[C@H](C)[C@@H](OCCNC(=O)CCCCl)[C@H](O)[C@@H]7O)[C@H](O)[C@H]6O[C@H]6O[C@H](C)[C@@H](O)[C@H](O)[C@@H]6O)CC[C@]5(C)[C@H]4CC[C@]3(C)[C@H]1[C@@H]2C
The HC50 at 1 h of the first is 5.5-fold higher: 20.9 µM for the first, 3.8 µM for the second.

`CCCCCCCCCC(=O)O[C@H]1C[C@@H]2[C@H](CC[C@]3(C)[C@@H]4[C@H](C[C@@H]23)O[C@]2(CC[C@@H](C)CO2)[C@H]4C)[C@@]2(C)C[C@@H](O)[C@H](O[C@@H]3O[C@H](CO)[C@@H](O[C@H]4O[C@H](C)[C@@H](O)[C@H](O)[C@@H]4O)[C@H](O)[C@H]3O[C@H]3O[C@H](C)[C@@H](O)[C@H](O)[C@@H]3O)C[C@H]12` and `C[C@@H]1CC[C@@]2(OC1)O[C@H]1C[C@H]3[C@@H]4CC[C@H]5C[C@@H](O[C@@H]6O[C@H](CO)[C@H](O[C@H]7O[C@H](C)[C@@H](O)[C@H](O)[C@@H]7O)[C@H](O)[C@H]6O[C@@H]6O[C@@H](C)[C@H](O)[C@@H](O)[C@H]6O)[C@H](O)C[C@]5(C)[C@H]4CC[C@]3(C)[C@H]1[C@@H]2C` are within 1.5-fold of each other in HC50 at 1 h: 6.7 µM for the first, 9.6 µM for the second.

First: CC(=O)O[C@H]1[C@H](O)[C@H](O)[C@@H](O[C@H]2[C@H](O)[C@@H](O[C@H]3O[C@H](C)[C@@H](O)[C@H](O)[C@@H]3O)[C@H](O[C@H]3CC[C@@]4(C)C(=CC[C@H]5[C@@H]6C[C@@H]7O[C@]8(CC[C@@H](C)CO8)[C@@H](C)[C@@H]7[C@@]6(C)CC[C@@H]54)C3)O[C@@H]2CO)O[C@@H]1C
Second: C[C@@H]1CC[C@@]2(OC1)O[C@H]1C[C@H]3[C@@H]4CC=C5C[C@@H](O[C@@H]6O[C@H](CO)[C@@H](O)[C@H](O[C@@H]7O[C@@H](C)[C@H](O)[C@@H](O)[C@H]7O)[C@H]6O[C@H]6O[C@H](C)[C@@H](O)[C@H](O)[C@@H]6O)CC[C@]5(C)[C@H]4CC[C@]3(C)[C@H]1[C@@H]2C [TACCAOSIDE]
The HC50 at 1 h of the first is 2.1-fold lower: 3.2 µM for the first, 6.8 µM for the second.

`C[C@@H]1CC[C@@]2(OC1)O[C@H]1C[C@H]3[C@@H]4CC=C5C[C@@H](O[C@@H]6O[C@H](CNC(=O)COc7ccc(Cl)cc7)[C@@H](O[C@H]7O[C@H](C)[C@@H](O)[C@H](O)[C@@H]7O)[C@H](O)[C@H]6O[C@H]6O[C@H](C)[C@@H](O)[C@H](O)[C@@H]6O)CC[C@]5(C)[C@H]4CC[C@]3(C)[C@H]1[C@@H]2C` and `C[C@@H]1CC[C@@]2(OC1)O[C@H]1C[C@H]3[C@@H]4CC=C5C[C@@H](O[C@@H]6O[C@H](CNC(=O)c7ccccc7)[C@@H](O[C@H]7O[C@H](C)[C@@H](O)[C@H](O)[C@@H]7O)[C@H](O)[C@H]6O[C@H]6O[C@H](C)[C@@H](O)[C@H](O)[C@@H]6O)CC[C@]5(C)[C@H]4CC[C@]3(C)[C@H]1[C@@H]2C` are within 1.5-fold of each other in HC50 at 1 h: 9.4 µM for the first, 10.7 µM for the second.

Going from `C[C@@H]1CC[C@@]2(OC1)O[C@H]1C[C@H]3[C@@H]4CC=C5C[C@@H](O[C@@H]6O[C@H](CO)[C@@H](O[C@H]7O[C@H](C)[C@@H](OCCNC(=O)OCC8c9ccccc9-c9ccccc98)[C@H](O)[C@@H]7O)[C@H](O)[C@H]6O[C@H]6O[C@H](C)[C@@H](O)[C@H](O)[C@@H]6O)CC[C@]5(C)[C@H]4CC[C@]3(C)[C@H]1[C@@H]2C` to `C[C@@H]1CC[C@@]2(OC1)O[C@H]1C[C@H]3[C@@H]4CC=C5C[C@@H](O[C@@H]6O[C@H](CNC(=O)OCC7c8ccccc8-c8ccccc87)[C@@H](O[C@H]7O[C@H](C)[C@@H](O)[C@H](O)[C@@H]7O)[C@H](O)[C@H]6O[C@H]6O[C@H](C)[C@@H](O)[C@H](O)[C@@H]6O)CC[C@]5(C)[C@H]4CC[C@]3(C)[C@H]1[C@@H]2C`, the HC50 at 1 h rises from 3 µM to 9 µM (3-fold).

First: C[C@@H]1CC[C@@]2(OC1)O[C@H]1C[C@H]3[C@@H]4CC=C5C[C@@H](O[C@@H]6O[C@H](CO)[C@@H](O[C@H]7O[C@H](C)[C@@H](OCCNC(=O)/C=C/c8ccccc8)[C@H](O)[C@@H]7O)[C@H](O)[C@H]6O[C@H]6O[C@H](C)[C@@H](O)[C@H](O)[C@@H]6O)CC[C@]5(C)[C@H]4CC[C@]3(C)[C@H]1[C@@H]2C
Second: COc1ccc(C(=O)NCCO[C@H]2[C@H](O)[C@H](O)[C@@H](O[C@H]3[C@H](O)[C@@H](O[C@H]4O[C@H](C)[C@@H](O)[C@H](O)[C@@H]4O)[C@H](O[C@H]4CC[C@@]5(C)C(=CC[C@H]6[C@@H]7C[C@@H]8O[C@]9(CC[C@@H](C)CO9)[C@@H](C)[C@@H]8[C@@]7(C)CC[C@@H]65)C4)O[C@@H]3CO)O[C@@H]2C)cc1
The HC50 at 1 h of the first is 3-fold lower: 1.5 µM for the first, 4.5 µM for the second.

`C[C@@H]1CC[C@@]2(OC1)O[C@H]1C[C@H]3[C@@H]4CC=C5C[C@@H](O[C@@H]6O[C@H](CO[C@@H]7O[C@@H](C)[C@H](O)[C@@H](O)[C@H]7O)[C@@H](O)[C@H](O)[C@H]6O)CC[C@]5(C)[C@H]4CC[C@]3(C)[C@H]1[C@@H]2C` and `C[C@@H]1CC[C@@]2(OC1)O[C@H]1C[C@H]3[C@@H]4CC=C5C[C@@H](O[C@@H]6O[C@H](CN)[C@@H](O[C@H]7O[C@H](C)[C@@H](O)[C@H](O)[C@@H]7O)[C@H](O)[C@H]6O[C@H]6O[C@H](C)[C@@H](O)[C@H](O)[C@@H]6O)CC[C@]5(C)[C@H]4CC[C@]3(C)[C@H]1[C@@H]2C` are within 1.5-fold of each other in HC50 at 1 h: 28.6 µM for the first, 24.8 µM for the second.

`CC(=O)NC[C@H]1O[C@@H](O[C@H]2CC[C@@]3(C)C(=CC[C@H]4[C@@H]5C[C@@H]6O[C@]7(CC[C@@H](C)CO7)[C@@H](C)[C@@H]6[C@@]5(C)CC[C@@H]43)C2)[C@H](O[C@H]2O[C@H](C)[C@@H](O)[C@H](O)[C@@H]2O)[C@@H](O)[C@@H]1O[C@H]1O[C@H](C)[C@@H](O)[C@H](O)[C@@H]1O` and `C[C@@H]1CC[C@@]2(OC1)O[C@H]1C[C@H]3[C@@H]4CC=C5C[C@@H](O[C@@H]6O[C@H](CN=[N+]=[N-])[C@@H](O[C@H]7O[C@H](C)[C@@H](O)[C@H](O)[C@@H]7O)[C@H](O)[C@H]6O[C@H]6O[C@H](C)[C@@H](O)[C@H](O)[C@@H]6O)CC[C@]5(C)[C@H]4CC[C@]3(C)[C@H]1[C@@H]2C` cannot be ordered by HC50 at 1 h: greater than 50 µg/mL for the first, greater than 50 µg/mL for the second.

`CCCCCCCCCCCCCCCCCC(=O)NCCO[C@H]1[C@H](O)[C@H](O)[C@@H](O[C@H]2[C@H](O)[C@@H](O[C@H]3O[C@H](C)[C@@H](O)[C@H](O)[C@@H]3O)[C@H](O[C@H]3CC[C@@]4(C)C(=CC[C@H]5[C@@H]6C[C@@H]7O[C@]8(CC[C@@H](C)CO8)[C@@H](C)[C@@H]7[C@@]6(C)CC[C@@H]54)C3)O[C@@H]2CO)O[C@@H]1C` and `C=CCCCCCCCCC(=O)NC[C@H]1O[C@@H](O[C@H]2CC[C@@]3(C)C(=CC[C@H]4[C@@H]5C[C@@H]6O[C@]7(CC[C@@H](C)CO7)[C@@H](C)[C@@H]6[C@@]5(C)CC[C@@H]43)C2)[C@H](O[C@H]2O[C@H](C)[C@@H](O)[C@H](O)[C@@H]2O)[C@@H](O)[C@@H]1O[C@H]1O[C@H](C)[C@@H](O)[C@H](O)[C@@H]1O` cannot be ordered by HC50 at 1 h: greater than 50 µg/mL for the first, greater than 50 µg/mL for the second.
